Consider two compounds from US20200246298A1, “Composition for Preventing or Treating Asthma Comprising Fatty Acid as Active Ingredient” (Dongshin University Industry-Academy Cooperation, priority 2019, published 2020).

The test system of test [1] is eosinophils, mucus and epithelial hyperplasia. The experiment in a line: H&E staining of lung tissue, OVA-induced asthma. It is filed as in vivo, BALB/c mice. The settings on record: 5 days, vs OVA-sensitized group. How it is done:
In test groups, the animals determined to be healthy during the acclimation period were ranked by measuring the weight, and were randomly grouped so that the average weight of each group was uniform. The animals were divided into a total of 9 groups: a control group; a control group with OVA-induced asthma; a positive control group; groups administered with each of 50 mg/kg, 125 mg/kg and 250 mg/kg of oleic acid; and groups administered with each of 5 mg/kg, 25 mg/kg and 50 mg/kg of palmitic acid. The animals were sensitized via intraperitoneal injection of OVA once a week for 2 weeks after the acclimation period. During 5 days of week 3, dexamethasone (DEX) and the test substances oleic acid and palmitic acid were orally administered in the morning and 5% OVA solution was inhaled in the afternoon. The test substance was orally administered in an amount of 28 μL per weight (g) of the experimental animal, and OVA for sensitization was administered in a constant amount regardless of the weight. After 5 days of administration, autopsy was performed the next day. Storage of tissue: ½ of the autopsy tissue was frozen quickly in liquid nitrogen, stored in an ultralow-temperature freezer or liquid nitrogen container (about −75 ° C.), and used for PCR/Western blotting, and the remaining ½ was stored in 10% formalin solution and used for histopathology and immunohistochemistry (IHC). […]

The test system of test [2] is WBC cells, eosinophils, neutrophils, lymphocytes and monocytes in BALF. Put plainly: Blood cell analysis in BALF of mice with OVA-induced asthma. It is filed as in vivo, BALB/c mice. The settings on record: for proliferation of leukocytes, neutrophils, lymphocytes and monocytes in BALF and serum: summary statement, ovalbumin-induced asthma. How it is done: This experiment was performed in order to examine the anti-asthmatic effects of fatty acids after inducing asthma in experimental animals by ovalbumin (OVA). Experimental animals used in the experiment were chosen because of the accumulated abundant test data and their ease of analysis and evaluation of experimental results. BALB/c mice, which are specific pathogen […] (SPF) mice, were chosen based on the related literature. Experimental animals were provided in the minimum number so as to be able to analyze experimental results and were divided into a total of 9 groups according to the substance to be administered, and each group consisted of 8 animals. […] In test groups, the animals determined to be healthy during the acclimation period were ranked by measuring the weight, and were randomly grouped so that the average weight of each group was uniform. The animals were divided into a total of 9 groups: a control group; a control group with OVA-induced asthma; a positive control group; groups administered with each of 50 mg/kg, 125 mg/kg and 250 mg/kg of oleic acid; and groups administered with each of 5 mg/kg, 25 mg/kg and 50 mg/kg of palmitic acid. The animals were sensitized via intraperitoneal injection of OVA once a week for 2 weeks after the acclimation period. During 5 days of week 3, dexamethasone (DEX) and the test substances oleic acid and palmitic acid were orally administered in the morning and 5% OVA solution was inhaled in the afternoon. The test substance was orally administered in an amount of 28 μL per weight (g) of the experimental animal, and OVA for sensitization was administered in a constant amount regardless of the weight. After 5 days of administration, autopsy was performed the next day. Intraperitoneal administration: based on the related literature, 20 μg OVA+1 mg aluminum hydroxide+500 μL/head of normal saline were administered. For a total of 50 animals to be administered, 1000 μg OVA+50 mg aluminum hydroxide+25 mL of normal saline were prepared. The animals were sensitized by intraperitoneal injection once a week for 2 weeks, and injected with the test substance by a 1 mL syringe. Oral administration: the control group and the asthma-induced control group were administered with saline, and oleic acid and palmitic acid were used in dissolved in saline at various concentrations. Dexamethasone was dissolved in saline by stirring and prepared according to a final dose. All preparations were prepared on the day of administration. Inhalation: a solution containing 1 g OVA+20 mL normal saline (5% OVA solution) was prepared, stirred and administered. A forced inhalation was performed using a nebulizer (OMRON, NE-U17) for 5 days, and systemic exposure was performed using an inhalation exposure chamber. Collection of bronchoalveolar lavage fluid (BALF): the anesthetized animal tissue was opened with tweezers to secure the trachea, and then a surgical thread was placed underneath and loosely tied, and the trachea was slightly cut with scissors. Then, 0.2 mL of PBS was placed into a syringe with the needle removed, and the syringe was inserted into a sonde and then injected into the trachea. After injection, BALF was collected by injecting PBS again. 0.2 mL of BALF was collected three times in the same manner. The first BALF was placed in tube No. 1, the second and third BALFs were placed in tube No. 2. The blood cell analysis in BALF were performed (Lee et al., 2017; Bang et al., 2015). One day after the final treatment, the mice were anesthetized with intraperitoneal injections of 50 mg/kg Zoletin (Virbac, Fort Worth, Tex., USA), and their tracheas were cannulated with disposable animal feeding needles. Lavages were performed with three 0.4 ml aliquots of cold phosphate-buffered saline (PBS). The BALF samples were collected and immediately centrifuged at 3000 rpm for 5 minutes at 4° C. (Sorvall Legend Micro 17R, Thermo Fisher Scientific, Inc. Marietta, Ohio, USA). […]

Regarding `CCCCCCCCCCCCCCCC(=O)O` [palmitic acid], the “eosinophils, mucus and epithelial hyperplasia (H&E staining)” value in test [1] (palmitic acid 5, 25, 50 mg/kg oral, FIG. 16) is reported as “dose-dependently decreased”. Besides, the “number of differential cells in BALF” value in test [2] (palmitic acid 5, 25, 50 mg/kg oral, 5 days, FIG. 7) is listed as “dose-dependently decreased”. Besides, the “number of WBC cells” value in test [2] (palmitic acid 5, 25, 50 mg/kg oral, 5 days, vs OVA-sensitized group, FIG. 8) is “dose-dependently decreased”. The “number of neutrophils (NEs)” value in test [2] (palmitic acid 5, 25, 50 mg/kg oral, 5 days, vs OVA-sensitized group, FIG. 10) was “dose-dependently decreased”. For the same compound, in test [2] (palmitic acid 5, 25, 50 mg/kg oral, 5 days, vs OVA-sensitized group, FIG. 12), the “number of monocytes (MOs)” value was “dose-dependently decreased”. In addition, in test [2], the “proliferation of leukocytes, neutrophils, lymphocytes and monocytes in BALF and serum” value was “inhibit”.
Take `CCCCCCCC/C=C\CCCCCCCC(=O)O` [oleic acid]: the “eosinophils, mucus and epithelial hyperplasia (H&E staining)” value in test [1] (oleic acid 50, 125, 250 mg/kg oral, FIG. 15) was “dose-dependently decreased”. Further, the “number of differential cells in BALF” value in test [2] (oleic acid 50, 125, 250 mg/kg oral, 5 days, FIG. 1) is listed as “dose-dependently decreased”. Further, in test [2] (oleic acid 50, 125, 250 mg/kg oral, 5 days, vs OVA-sensitized group, FIG. 2), the “number of WBC cells” value is reported as “dose-dependently decreased”. Besides, the “number of eosinophils (EOs)” value in test [2] (oleic acid 50, 125, 250 mg/kg oral, 5 days, vs OVA-sensitized group, FIG. 3) is listed as “dose-dependently decreased”. Besides, the “number of neutrophils (NEs)” value in test [2] (oleic acid 50, 125, 250 mg/kg oral, 5 days, vs OVA-sensitized group, FIG. 4) was “dose-dependently decreased”. In addition, the “number of lymphocytes (LYs)” value in test [2] (oleic acid 50, 125, 250 mg/kg oral, 5 days, vs OVA-sensitized group, FIG. 5) was “dose-dependently decreased”. Further, the “number of monocytes (MOs)” value in test [2] (oleic acid 50, 125, 250 mg/kg oral, 5 days, vs OVA-sensitized group, FIG. 6) is reported as “dose-dependently decreased”. The “proliferation of leukocytes, neutrophils, lymphocytes and monocytes in BALF and serum” value in test [2] is recorded as “inhibit”.
